# Laboratory results: patent US6375928B1, “Neutrophil stimulating peptides” (Peptech Limited, priority 1990, dated 2002)
# “Also recorded” adds a separate entry of the source.
# Columns and labels:
# neutrophils [1] = assay: Neutrophil random migration out of wells in agarose; type: cell-based
# Source text: Migration of cells is an important property by which cells reach infection sites. Their accumulation at these sites is also dependent on the capacity of inflammatory mediators to inhibit their migration out of the sites.
# neutrophils [2] = assay: Neutrophil degranulation: β-glucuronidase release (azurophilic granules); type: cell-based; settings: for β-glucuronidase release, Exp. 1 / β-glucuronidase release, Exp. 2 / β-glucuronidase release, Exp. 3 / β-glucuronidase release, Exp. 4: in the presence of CytoB
# human neutrophils [3] = assay: Chemiluminescence assay: priming of neutrophils for F-met-leu-phe response (respiratory burst); type: cell-based; settings: peptide alone
# neutrophils [4] = assay: Neutrophil degranulation: Vitamin B12 binding protein release (specific granules); type: cell-based; settings: for Vitamin B12 Binding Protein, Exp. 1 / Vitamin B12 Binding Protein, Exp. 2 / Vitamin B12 Binding Protein, Exp. 3 / Vitamin B12 Binding Protein, Exp. 4: in the presence of CytoB
# neutrophils [5] = assay: Superoxide formation, cytochrome reduction assay; type: cell-based
# Source text: The effect of peptides 308 and 309 (SEQ ID NOs. 10 & 11) on superoxide formation was examined by the cytochrome reduction assay, according to the procedure of Ferrante, 1989 (Infection and Immunity), 57: 2115-2122). The results, expressed as n moles of O2/5×10^5 cells as set out in Table 6.
# neutrophils [6] = assay: Chemotactic properties, neutrophil migration under agarose; type: cell-based
# Description: 5 μl of neutrophils (2×10^5 cells) were added to the inner well, with chemotactic agent or control medium added to the outer wells. Migration at various time intervals was then measured.
# human neutrophils [7] = assay: Chemiluminescence assay: priming of neutrophils for F-met-leu-phe response (respiratory burst); type: cell-based; settings: for lucigenin dependent chemiluminescence, peak of response: 20 min pretreatment before f-met-leu-phe; for chemiluminescence (repeat experiment, Table 3): peptide + fMLP
# Description: Purified human neutrophils were pretreated with peptide for 20 minutes before the addition of f-met-leu-phe. The lucigenin dependent chemiluminescence response, which reflects superoxide production, was then measured. The results obtained are set out in Table 2 and are expressed as mV of lucigenin dependent chemiluminescence and represent the maximal cell activity attained.
# Results are expressed as mV of lucigenin dependent chemiluminescence and represent peak of response i.e. the maximal cell activity attained.
# P. falciparum = assay: Ability of peptide-stimulated neutrophils to inhibit in vitro growth of malaria parasites; type: cell-based; settings: neutrophils incubated with peptide 37° C. 30 minutes; thawed normal, normal and immune serum (FIG. 5)
# Description: The ability of neutrophils stimulated with peptides 418 and 419 (SEQ ID Nos. 17 & 18) to inhibit in vitro growth of malaria parasites was assessed.
# Briefly, neutrophils were incubated with peptides 418 and 419 (SEQ ID NOs. 17 & 18) at 37° C. for 30 minutes and then washed with HBSS. The neutrophils were then added to a culture of red blood cells infected with P. falciparum. The cultures were then examined microscopically for evidence of parasite death.
# ICAM = assay: Induction of ICAM on human umbilical vein endothelial cells (HUVEC); type: cell-based; settings: peptide 1 mg, four hours at 37° C. (FIG. 7)
# Description: Peptide 419 (SEQ ID NO. 18) was tested for its ability to induce ICAM using the following procedure.
# The cells were then washed extensively with PBS containing Ca^++ and Mg^++ and fixed ([…] 0.025% guteraldehyde, overnight, 4° C.). The cells were again washed, and incubated with anti-ICAM antibody (84H10) for 1 hr at room temperature. The cells were washed and incubated for a further 1 hr at room temperature in the presence of rabbit anti-mouse Ig-HRP. Surface expression of Icam was then quantitated using the ABTS substrate by absorption at OD405 nm.
# Pseudomonas aeruginosa = assay: Pseudomonas experiment: chronic lung infection in mice; type: in vivo; settings: female Swiss mice, chronic Pa lung infection; 0.5 mg peptide tail-vein each day for 3 days from day 12; n=4; p<0.05 vs carrier (5.25)
# Description: Chronic lung infection by Pseudomonas aeruginosa (Pa) is common in cystic fibrosis. […] The present inventors reasoned that pre-sensitising neutrophils with TNF intravascularly, prior to their entry into the lung, may overcome this problem. […] The ability of i.v.-injected 419 (SEQ ID NO. 18) to protect against chronic lung injury induced by Pseudomonas was tested. Chronic lung infections were established in 120 14 week female Swiss mice by introducing the bacteria suspended in agar beads (<200 μm diameter) into the lung. Mice were anaesthetised and 30 μl of bead suspension introduced via a polyethylene cannula into the right bronchus through a small incision between the tracheal rings. After recover, animals (n=20) developed a chronic infection followed for at least 10-14 days. Control animals included: sham-operated (n=2); and those inoculated with sterile beads (n=6) or with beads containing fresh, heat-killed Pa (n=5).
# monocytes = assay: Priming of monocytes for a respiratory burst (chemiluminescence); type: cell-based; settings: 10^6 monocytes/tube/ml, 30 min pre-incubation 37° C.
# Description: Peptide 419 (SEQ ID NO. 18) was assayed for its ability to prime monocytes for a respiratory burst. This assay was conducted essentially as described above for neutrophils except that the cells were cultured for 24 hours prior to assay.
# [8] = peptide 100 μg/10^6 cells (or HBSS) + fMLP
# [9] = peptide 100 μg/10^6 cells, no fMLP
# [10] = towards agent well, 1 × 10^−7 M fMLP, peptide, or 10^3 U/ml TNFα, 2×10^5 neutrophils
# [11] = with fMLP, 419 100 μg/10^6 monocytes, 50 U TNF or no pre-treatment
# [12] = without fMLP, 419 100 μg/10^6 monocytes or 50 U TNF
substance,measurement,setting,value
G L Y L I Y S Q V L F K G Q G (GLYLIYSQVLFKGQG) [Peptide 308],effect on neutrophil random migration (in words),neutrophils [1],potent inhibitors of neutrophil migration
same,Inhibition of Migration,neutrophils [1]; 10 μg/10^6 cells,0%
same,Inhibition of Migration,neutrophils [1]; 100 μg/10^6 cells,100%
same,"release from azurophilic granules (β-glucuronidase), in words",neutrophils [2]; absence of fMLP,decreased the release
same,"β-glucuronidase release, Exp. 1",neutrophils [2]; [8],17.57%
same,"β-glucuronidase release, Exp. 2",neutrophils [2]; [8],28.86%
same,"β-glucuronidase release, Exp. 3",neutrophils [2]; [8],17.86%
same,"β-glucuronidase release, Exp. 4",neutrophils [2]; [8],18.20%
same,"β-glucuronidase release, Exp. 1",neutrophils [2]; [9],0.8%
same,"β-glucuronidase release, Exp. 2",neutrophils [2]; [9],0.65%
same,"β-glucuronidase release, Exp. 3",neutrophils [2]; [9],2.76%
same,"β-glucuronidase release, Exp. 4",neutrophils [2]; [9],0.72%
same,"release from azurophilic granules (β-glucuronidase), in words",neutrophils [2]; presence of fMLP,still apparent following stimulation with fMLP
same,"chemiluminescence (repeat experiment, Table 3)",human neutrophils [3]; 10 μg/10^6 cells,1.00 mV
same,"chemiluminescence (repeat experiment, Table 3)",human neutrophils [3]; 100 μg/10^6 cells,11.76 mV
same,"release from specific granules (Vitamin B12 binding protein), in words",neutrophils [4]; absence of fMLP,decreased the release
same,"Vitamin B12 Binding Protein, Exp. 1",neutrophils [4]; [8],35.81
same,"Vitamin B12 Binding Protein, Exp. 2",neutrophils [4]; [8],27.59
same,"Vitamin B12 Binding Protein, Exp. 3",neutrophils [4]; [8],26.55
same,"Vitamin B12 Binding Protein, Exp. 4",neutrophils [4]; [8],21.51
same,"Vitamin B12 Binding Protein, Exp. 1",neutrophils [4]; [9],2.00
same,"Vitamin B12 Binding Protein, Exp. 2",neutrophils [4]; [9],2.08
same,"Vitamin B12 Binding Protein, Exp. 3",neutrophils [4]; [9],5.70
same,"Vitamin B12 Binding Protein, Exp. 4",neutrophils [4]; [9],2.25
same,"release from specific granules (Vitamin B12 binding protein), in words",neutrophils [4]; presence of fMLP,still apparent following stimulation with fMLP
same,superoxide formation,"neutrophils [5]; peptide + fMLP, 10 μg/5 × 10^5 cells",5.00 n moles of O2/5×10^5 cells
same,superoxide formation,"neutrophils [5]; peptide + fMLP, 100 μg/5 × 10^5 cells",6.729 n moles of O2/5×10^5 cells
same,superoxide formation,"neutrophils [5]; peptide alone, 10 μg/5 × 10^5 cells",2.78 n moles of O2/5×10^5 cells
same,superoxide formation,"neutrophils [5]; peptide alone, 100 μg/5 × 10^5 cells",4.892 n moles of O2/5×10^5 cells
same,chemotactic properties (in words),neutrophils [6],strongly chemotactic
same,"Migration distance at 1.5 h, Agent",neutrophils [6]; [10],0.66 mm
same,"Migration distance at 2.5 h, Agent",neutrophils [6]; [10],1.41 mm
same,neutrophil stimulating activity / stimulation of neutrophil respiratory burst (in words),human neutrophils [7],neutrophil stimulating activity
same,priming of neutrophils for the respiratory burst associated with f-met-leu-phe treatment (in words),human neutrophils [7],found to prime human neutrophils for the respiratory burst; also recorded: particularly potent primer of neutrophils
same,"lucigenin dependent chemiluminescence, peak of response",human neutrophils [7]; peptide 1 μg/10^6 cells,0.91 mV
same,"lucigenin dependent chemiluminescence, peak of response",human neutrophils [7]; peptide 10 μg/10^6 cells,4.80 mV
same,"lucigenin dependent chemiluminescence, peak of response",human neutrophils [7]; peptide 100 μg/10^6 cells,49.52 mV
same,"chemiluminescence (repeat experiment, Table 3)",human neutrophils [7]; 10 μg/10^6 cells,2.74 mV
same,"chemiluminescence (repeat experiment, Table 3)",human neutrophils [7]; 100 μg/10^6 cells,28.56 mV
P S T H V L I T H T I (PSTHVLITHTI) [Peptide 419],inhibition of in vitro growth of malaria parasites by stimulated neutrophils (in words),P. falciparum,more effective than TNF
same,induction of ICAM surface expression (in words),ICAM,does not induce the cell adhesion molecule ICAM
same,"percentage peripheral consolidation, mean (se)",Pseudomonas aeruginosa,0.25 (se 0.25) %
same,"Peak mV Chemiluminescence, Mean ± S.D.",monocytes; [11],240.0 ± 32.527 mV
same,"Peak mV Chemiluminescence, experiment 1",monocytes; [11],263.0 mV
same,"Peak mV Chemiluminescence, experiment 2",monocytes; [11],217.0 mV
same,"Peak mV Chemiluminescence, Mean ± S.D.",monocytes; [12],3.385 ± 1.365 mV
same,"Peak mV Chemiluminescence, experiment 1",monocytes; [12],2.42 mV
same,"Peak mV Chemiluminescence, experiment 2",monocytes; [12],4.35 mV
same,neutrophil stimulating activity / stimulation of neutrophil respiratory burst (in words),human neutrophils [7],neutrophil stimulating activity
same,Chemiluminescence mean + sem,"human neutrophils [7]; 100 μg peptide, priming neutrophils for respiratory burst",18.6 ± 0.5 mV
